According to patent US10507206B2, “Oral formulations and lipophilic salts of methylnaltrexone” (Wyeth, LLC, priority 2010, dated 2019):

Assays:
[1] = reported value for comparison; cited from earlier work
[2] = apparent octanol-water partition coefficient (APC) of MNTX salts by HPLC; format: physicochemical; settings: 1-octanol/water, aqueous phase pH between 4.5 and 6.8; for Log P: room temperature; for APC: shaken overnight at room temperature
From the text: The term “apparent partition coefficient,” as used herein, refers to the ratio of concentrations of a compound in any form in the two phases of a mixture of two immiscible solvents at equilibrium. In certain embodiments, the two immiscible solvents are octanol and water. The apparent partition coefficient may be determined under various conditions, for example, temperature, pH, concentration, etc. Apparent partition coefficients have been found useful in estimating the distribution of compounds in the body. Higher apparent partition coefficients denote a more hydrophobic (more lipophilic) compound, while lower apparent partition coefficients denote a hydrophilic compound. The apparent partition coefficient of a compound may be determined by procedures known in the art, for example, in the U.S. Pharmacopeia. The apparent partition coefficient may be determined by the procedure used to determine the apparent partition coefficients of methylnaltrexone dodecyl sulfate and methylnaltrexone heptyl sulfate in the Examples.
As a measure of lipophilicity of the resulting ion pair, a solution of the composition yields an apparent octanol/water partition coefficient for methylnaltrexone of at least 0.25 at a pH between 1 and 4. The apparent octanol/water partition coefficient as used herein is determined at room temperature at a concentration of approximately 0.5 mg/mL. Exemplary methods for the determination of apparent octanol/water partition coefficient of methylnaltrexone salts are described in the Examples below.
Ion pairs of methylnaltrexone with amphiphilic pharmaceutically acceptable excipients were prepared and the apparent octanol-water partition coefficient (APC) was measured and compared to that of methylnaltrexone bromide. A pre-determined amount of each of MNTX-heptyl sulfate and MNTX-dodecyl sulfate was dissolved in 2 mL of 1-octanol that was saturated with water. Two mL of water that was saturated with 1-octanol was added to each MNTX salt solution. The mixtures were shaken overnight at room temperature, and 1 mL of the 1-octanol phase was then diluted to 10 mL with the mobile phase used for chromatographic (HPLC) analysis of the samples. And 1 mL of the aqueous phase was diluted to 5 mL with the mobile phase. The samples were then analyzed by HPLC to determine the apparent partition coefficient and log P for each MNTX salt. The pH of the aqueous phases for each of the salts was between 4.5 and 6.8.

[3] = intravenous 0.01-0.37 mg/kg, methadone maintenance patients; cited from earlier work
[4] = oral, in general; cited from earlier work
[5] = system: constipation in methadone maintenance patients; settings: intravenous 0.01-0.37 mg/kg; cited from earlier work

## C[N@+]1(CC2CC2)CC[C@]23c4c5ccc(O)c4O[C@H]2C(=O)CC[C@@]3(O)[C@H]1C5.[Br-] [MNTX, (R)—N-(cyclopropylmethyl) noroxymorphone methobromide]
[1]
  reported Log P: −1.605
  reported partition coefficient: 0.025

## CCCCCCCOS(=O)(=O)[O-].C[N+]1(CC2CC2)CCC23c4c5ccc(O)c4OC2C(=O)CCC3(O)C1C5 (stereo not shown) [MNTX-heptyl sulfate, methylnaltrexone heptyl sulfate]
[2]
  Log P: 0.292
  APC: 1.961

## C[N+]1(CC2CC2)CC[C@]23c4c5ccc(O)c4O[C@H]2C(=O)CC[C@@]3(O)[C@H]1C5 (stereo partly drawn) [methylnaltrexone, (R)—N-methylnaltrexone]
[3]
  average peak plasma levels: 162 ng/mL
  peak plasma levels, range: 30 to 774 ng/mL
[4]
  methylnaltrexone absorbed into the bloodstream when delivered orally: less than 5%
[5]
  laxation: induced “immediate” laxation

## methylnaltrexone dodecyl sulfate [MNTX-dodecyl sulfate]
[2]
  Log P: 1.505
  APC: 32.014
